Like-named read-outs stand apart in the source and are kept apart here.
Target: T1, TNF-α (Homo sapiens, UniProt P01375)
T1 construct: purchased R&D 210-TA-020/CF
Assay: TNF-α Induced HEK Blue Cellular Assay (secreted alkaline phosphatase expression, QUANTI-Blue)
Type: cell-based
Conditions: HEK Blue TNFα reporter cells, TNF-α 100 μg/ml, 24 hrs at 37° C., inhibition of secreted alkaline phosphatase
Outline: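 HEK Blue TNFα reporter cells (10,000/well) in DMEM with 10% FBS received compound ([…] to 0.5 nM final) and TNF-α at […] final for 24 h at 37° C. Secreted alkaline phosphatase read with QUANTI-Blue at 620 nm. IC50 came from a 4-parameter logistic fit after normalising to unstimulated and stimulated DMSO controls.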

T1 sequence (P01375 77-233 limits assumed): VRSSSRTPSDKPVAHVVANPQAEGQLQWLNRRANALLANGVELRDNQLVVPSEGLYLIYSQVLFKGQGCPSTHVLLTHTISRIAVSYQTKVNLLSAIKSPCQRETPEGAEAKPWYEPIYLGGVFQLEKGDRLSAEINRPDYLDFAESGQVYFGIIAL

| Structure (SMILES) | IC50 (read-out: IC50 value) [nM] | IC50 (IC50 value) [nM] |
| --- | --- | --- |
| [2H]C([2H])([2H])N1C(=O)c2cccc(OC(F)F)c2[C@H]2C[C@@H]1c1nc3ccc(C#CCNC4COC4)cc3n12 [Example 242, (7R,14R)-1-(difluoromethoxy)-6-(methyl-d3)-11-(3-(oxetan-3-ylamino)prop-1-yn-1-yl)-6,7-dihydro-7,14-methanobenzo[f]benzo[4,5]imidazo[1,2-a][1,4]diazocin-5(14H)-one] |  | < 100 |
| [2H]C([2H])([2H])N1C(=O)c2cccc(OC(F)F)c2[C@H]2C[C@@H]1c1nc3ccc(C#CCCNCC)cc3n12 [Example 152, (7R,14R)-1-(difluoromethoxy)-11-(4-(ethylamino)but-1-yn-1-yl)-6-(methyl-d3)-6,7-dihydro-7,14-methanobenzo[f]benzo[4,5]imidazo[1,2-a][1,4]diazocin-5(14H)-one] | 100 to 1000 |  |
| [2H]C([2H])([2H])N1C(=O)c2cccc(OC(F)F)c2[C@H]2C[C@@H]1c1nc3ccc(C#CC4(C)CN(C(=O)C5CC5(F)F)C4)cc3n12 (stereo partly drawn) [Example 210, (7R,14R)-11-((1-(2,2-difluorocyclopropane-1-carbonyl)-3-methylazetidin-3-yl)ethynyl)-1-(difluoromethoxy)-6-(methyl-d3)-6,7-dihydro-7,14-methanobenzo[f]benzo[4,5]imidazo[1,2-a][1,4]diazocin-5(14H)-one] | 100 to 1000 |  |
| [2H]C([2H])([2H])N1C(=O)c2cccc(OC(F)F)c2[C@H]2C[C@@H]1c1nc3ccc(C#CCC4CC4)cc3n12 [Example 105, (7R,14R)-11-(3-cyclopropylprop-1-yn-1-yl)-1-(difluoromethoxy)-6-(methyl-d3)-6,7-dihydro-7,14-methanobenzo[f]benzo[4,5]imidazo[1,2-a][1,4]diazocin-5(14H)-one] | < 100 |  |
| [2H]C([2H])([2H])N1C(=O)c2cccc(OC(F)F)c2[C@H]2C[C@@H]1c1nc3ccc(C#CC4CCN(C(=O)C(C)(C)O)C4)cc3n12 (stereo partly drawn) [Example 202, (7R,14R)-1-(difluoromethoxy)-11-((1-(2-hydroxy-2-methylpropanoyl)pyrrolidin-3-yl)ethynyl)-6-(methyl-d3)-6,7-dihydro-7,14-methanobenzo[f]benzo[4,5]imidazo[1,2-a][1,4]diazocin-5(14H)-one] | 100 to 1000 |  |
| [2H]C([2H])([2H])N1C(=O)c2cccc(OC(F)F)c2[C@H]2C[C@@H]1c1nc3ccc(C#CC4(C)CCN(C(=O)C5(C)CC5)C4)cc3n12 (stereo partly drawn) [Example 182, (7R,14R)-1-(difluoromethoxy)-6-(methyl-d3)-11-((3-methyl-1-(1-methylcyclopropane-1-carbonyl)pyrrolidin-3-yl)ethynyl)-6,7-dihydro-7,14-methanobenzo[f]benzo[4,5]imidazo[1,2-a][1,4]diazocin-5(14H)-one] | 100 to 1000 |  |
| [2H]C([2H])([2H])N1C(=O)c2cccc(OC(F)F)c2[C@H]2C[C@@H]1c1nc3ccc(C#CC4CN(C(C)C)C4)cc3n12 [Example 119, (7R,14R)-1-(difluoromethoxy)-11-((1-isopropylazetidin-3-yl)ethynyl)-6-(methyl-d3)-6,7-dihydro-7,14-methanobenzo[f]benzo[4,5]imidazo[1,2-a][1,4]diazocin-5(14H)-one] | < 100 |  |
| [2H]C([2H])([2H])N1C(=O)c2cccc(OC(F)F)c2[C@H]2C[C@@H]1c1nc3ccc(C#CC(=O)OC)cc3n12 [Example 27, methyl 3-((7R,14R)-1-(difluoromethoxy)-6-(methyl-d3)-5-oxo-5,6,7,14-tetrahydro-7,14-methanobenzo[f]benzo[4,5]imidazo[1,2-a][1,4]diazocin-11-yl)propiolate] | < 100 |  |
| [2H]C([2H])([2H])N1C(=O)c2cccc(OC(F)F)c2[C@H]2C[C@@H]1c1nc3ccc(C#CC4CN(C(C)=O)C4)cc3n12 [Example 120, (7R,14R)-11-((1-acetylazetidin-3-yl)ethynyl)-1-(difluoromethoxy)-6-(methyl-d3)-6,7-dihydro-7,14-methanobenzo[f]benzo[4,5]imidazo[1,2-a][1,4]diazocin-5(14H)-one] |  | < 100 |
| [2H]C([2H])([2H])N1C(=O)c2cccc(OC(F)F)c2[C@H]2C[C@@H]1c1nc3ccc(C#Cc4cn(C)nn4)cc3n12 [Example 18, (7R,14R)-1-(difluoromethoxy)-6-(methyl-d3)-11-((1-methyl-1H-1,2,3-triazol-4-yl)ethynyl)-6,7-dihydro-7,14-methanobenzo[f]benzo[4,5]imidazo[1,2-a][1,4]diazocin-5(14H)-one] | < 100 |  |
| [2H]C([2H])([2H])N1C(=O)c2cccc(OC(F)F)c2[C@H]2C[C@@H]1c1nc3ccc(C#CC(C)C)cc3n12 [Example 75, (7R,14R)-1-(difluoromethoxy)-6-(methyl-d3)-11-(3-methylbut-1-yn-1-yl)-6,7-dihydro-7,14-methanobenzo[f]benzo[4,5]imidazo[1,2-a][1,4]diazocin-5(14H)-one] | 100 to 1000 |  |
| [2H]C([2H])([2H])N1C(=O)c2cccc(OC(F)F)c2[C@H]2C[C@@H]1c1nc3ccc(C#Cc4nncs4)cc3n12 [Example 30, (7R,14R)-11-((1,3,4-thiadiazol-2-yl)ethynyl)-1-(difluoromethoxy)-6-(methyl-d3)-6,7-dihydro-7,14-methanobenzo[f]benzo[4,5]imidazo[1,2-a][1,4]diazocin-5(14H)-one] | < 100 |  |
| [2H]C([2H])([2H])N1C(=O)c2cccc(OC(F)F)c2[C@H]2C[C@@H]1c1nc3ccc(C#CC4(F)CNC4)cc3n12 [Example 253, (7R,14R)-1-(difluoromethoxy)-11-((3-fluoroazetidin-3-yl)ethynyl)-6-(methyl-d3)-6,7-dihydro-7,14-methanobenzo[f]benzo[4,5]imidazo[1,2-a][1,4]diazocin-5(14H)-one] | < 100 |  |
| [2H]C([2H])([2H])N1C(=O)c2cccc(OC(F)F)c2[C@H]2C[C@@H]1c1nc3ccc(C#CC4CCCCN4)cc3n12 (stereo partly drawn) [Example 47, (7R,14R)-1-(difluoromethoxy)-6-(methyl-d3)-11-(piperidin-2-ylethynyl)-6,7-dihydro-7,14-methanobenzo[f]benzo[4,5]imidazo[1,2-a][1,4]diazocin-5(14H)-one] | 10000 to 30000 |  |

Second part, the compound after the results:

| IC50 (read-out: IC50 value) [nM] | IC50 (IC50 value) [nM] | Structure (SMILES) |
| --- | --- | --- |
| < 100 |  | [2H]C([2H])([2H])N1C(=O)c2cccc(OC(F)F)c2[C@H]2C[C@@H]1c1nc3ccc(C#CC4CN(C)C4)cc3n12 [Example 68, (7R,14R)-1-(difluoromethoxy)-6-(methyl-d3)-11-((1-methylazetidin-3-yl)ethynyl)-6,7-dihydro-7,14-methanobenzo[f]benzo[4,5]imidazo[1,2-a][1,4]diazocin-5(14H)-one] |
| < 100 |  | [2H]C([2H])([2H])N1C(=O)c2cccc(OC(F)F)c2[C@H]2C[C@@H]1c1nc3ccc(C#CCCC#N)cc3n12 [Example 87, 5-((7R,14R)-1-(difluoromethoxy)-6-(methyl-d3)-5-oxo-5,6,7,14-tetrahydro-7,14-methanobenzo[f]benzo[4,5]imidazo[1,2-a][1,4]diazocin-11-yl)pent-4-ynenitrile] |
| < 100 |  | [2H]C([2H])([2H])N1C(=O)c2cccc(OC(F)F)c2[C@H]2C[C@@H]1c1nc3ccc(C#CCC(C)O)cc3n12 (single isomer, unassigned) [Example 140, (7R,14R)-1-(difluoromethoxy)-11-((S or R)-4-hydroxypent-1-yn-1-yl)-6-(methyl-d3)-6,7-dihydro-7,14-methanobenzo[f]benzo[4,5]imidazo[1,2-a][1,4]diazocin-5(14H)-one] |
| < 100 |  | [2H]C([2H])([2H])N1C(=O)c2cccc(OC(F)F)c2[C@H]2C[C@@H]1c1nc3ccc(C#CC4(C)CN(CC)C4)cc3n12 [Example 206, (7R,14R)-1-(difluoromethoxy)-11-((1-ethyl-3-methylazetidin-3-yl)ethynyl)-6-(methyl-d3)-6,7-dihydro-7,14-methanobenzo[f]benzo[4,5]imidazo[1,2-a][1,4]diazocin-5(14H)-one] |
| < 100 |  | [2H]C([2H])([2H])N1C(=O)c2cccc(OC(F)F)c2[C@H]2C[C@@H]1c1nc3ccc(C#CCOCC(F)(F)F)cc3n12 [Example 160, (7R,14R)-1-(difluoromethoxy)-6-(methyl-d3)-11-(3-(2,2,2-trifluoroethoxy)prop-1-yn-1-yl)-6,7-dihydro-7,14-methanobenzo[f]benzo[4,5]imidazo[1,2-a][1,4]diazocin-5(14H)-one] |
| < 100 |  | [2H]C([2H])([2H])N1C(=O)c2cccc(OC(F)F)c2[C@H]2C[C@@H]1c1nc3ccc(C#Cc4nnc(N)s4)cc3n12 [Example 263, (7R,14R)-11-((5-amino-1,3,4-thiadiazol-2-yl)ethynyl)-1-(difluoromethoxy)-6-(methyl-d3)-6,7-dihydro-7,14-methanobenzo[f]benzo[4,5]imidazo[1,2-a][1,4]diazocin-5(14H)-one] |
| < 100 |  | [2H]C([2H])([2H])N1C(=O)c2cccc(OC(F)F)c2[C@H]2C[C@@H]1c1nc3ccc(C#CCN4CCC(F)(F)C4)cc3n12 [Example 230, (7R,14R)-1-(difluoromethoxy)-11-(3-(3,3-difluoropyrrolidin-1-yl)prop-1-yn-1-yl)-6-(methyl-d3)-6,7-dihydro-7,14-methanobenzo[f]benzo[4,5]imidazo[1,2-a][1,4]diazocin-5(14H)-one] |
| < 100 |  | [2H]C([2H])([2H])N1C(=O)c2cccc(OC(F)F)c2[C@H]2C[C@@H]1c1nc3ccc(C#Cc4cnoc4)cc3n12 [Example 41, (7R,14R)-1-(difluoromethoxy)-11-(isoxazol-4-ylethynyl)-6-(methyl-d3)-6,7-dihydro-7,14-methanobenzo[f]benzo[4,5]imidazo[1,2-a][1,4]diazocin-5(14H)-one] |
| < 100 |  | [2H]C([2H])([2H])N1C(=O)c2cccc(OC(F)F)c2[C@H]2C[C@@H]1c1nc3ccc(C#Cc4cnn(C)c4C#N)cc3n12 [Example 24, 4-(((7R,14R)-1-(difluoromethoxy)-6-(methyl-d3)-5-oxo-5,6,7,14-tetrahydro-7,14-methanobenzo[f]benzo[4,5]imidazo[1,2-a][1,4]diazocin-11-yl)ethynyl)-1-methyl-1H-pyrazole-5-carbonitrile] |
